US8383601B2, “Tissue specific gene therapy treatment” (Thomas Jefferson University, priority 2006, dated 2013)
Where no end group is shown, it is not given here.

Legend:
[1] = test system: LV mRNA (S100A1, SERCA2a, PLB, ANF, TGFβ1, Collagen I); assay: Real-time RT-PCR of cardiac expression of key genes in LV; assay type: in vivo, rat; conditions: 18 weeks post-MI
Description: RNA isolation and real-time RT-PCR—Total RNA was isolated from LV as well as from isolated cardiomyocytes using either Ultraspec® (Biotec) or Trizol® (Life Technologies). cDNA was synthesized by reverse transcription of the RNA with Superscript II® (Life Technologies) as recommended. Real-time RT-PCR was performed in duplicates with a 1:100 dilution of the cDNA on a MyIQ real time PCR detection system (BioRad) with the SYBR® Green PCR master mix (Applied Biosystems) as described previously^13,15. The oligonucleotide primers to examine expression of genes were as follows: ANF, forward primer 5′-[…]-3′ (SEQ. ID. No. 13), reverse primer 5′-[…]-3′ (SEQ. ID. No. 14); SERCA2a, forward primer 5′-[…]-3′ (SEQ. ID. No. 15), reverse primer 5′-[…]-3′ (SEQ. ID. No. 16); PLB, forward primer 5′-[…]-3′ (SEQ. ID. No. 17), reverse primer 5′-[…]-3′(SEQ. ID. No. 18); S100A1, forward primer 5′-[…]-3′ (SEQ. ID. No. 19), reverse primer 5′-[…]-3′ (SEQ. ID. No. 20); TGF-131, forward primer 5′-[…]-3′ (SEQ. ID. No. 21), reverse primer 5′-[…]-3′(SEQ. ID. No. 22); Collagen type I, forward primer 5′-[…]-3′ (SEQ. ID. No. 23), reverse primer 5′-AGGTGATGTTCTGGG-3′(SEQ. ID. No. 24); GRK2, forward primer 5′-[…]-3′ (SEQ. ID. No. 25), reverse primer 5′-[…]-3′ (SEQ. ID. No. 26). For normalization, 18S rRNA was used, forward primer 5′-[…]-3′ (SEQ. ID. No. 27), reverse primer 5′-GGACATCTAAGGGCATCAC-3′ (SEQ. ID. No. 28). PCR conditions were 95° C., 3 min, and 40 cycles of 95° C., 10 sec; 60.5° C., 45 sec. Specificity of PCR products were confirmed by gel electrophoresis.

[2] = test system: adult rat ventricular cardiomyocytes; assay: Ca2+-transient analyses and contractile parameters of isolated adult rat cardiomyocytes; assay type: cell-based; conditions: 8 weeks after treatment; 1 Hz, 2.5 mM [Ca2+]e; for AAV6/S100A1 infected (green) cells only
[3] = test system: rat MI model (chronic HF); assay: Echocardiography of global cardiac function in post-MI HF rats; assay type: in vivo
Description: (§1) Rat MI model and cardiac gene delivery—All animal procedures and experiments were performed in accordance with the guidelines of the IACUC of Thomas Jefferson University. MI was induced as described previously using a model of cryoinfarction that produces a highly reproducible loss of myocardium^13. Briefly, anesthetized adult male (250-300 g) rats were intubated and mechanically ventilated and anaesthesia was maintained using a 2% isoflurane (v/v) oxygen mixture. The heart was exposed through a median sternotomy and the pericardium was opened. A 6-0 suture was placed at the apex of the LV. An 8 mm diameter cylindrical stamp was cooled in liquid nitrogen and then pressed on the LV free wall. Cryothermia was applied by use of three freeze cycles of 1 min each that was interrupted by one minute thawing intervals^13,15.
Myocardial gene transfer to 10 week post-MI rats was achieved as previously described^13,15 with some modifications. […]
Echocardiography—To measure global cardiac function, echocardiography was performed 10 and 18 weeks post-MI by use of the VisualSONICS VeVo 770 imaging system with a 710 scanhead in anesthetized animals (2% isoflurane, v/v). The internal diameter of the LV was measured in the short-axis view from M-mode recordings in end diastole and end systole. […]

[4] = test system: adult rat ventricular cardiomyocytes; assay: Diastolic cell length of isolated cardiomyocytes; assay type: cell-based; conditions: 2 hrs after cardiomyocyte isolation, 3 animals per group, 18 weeks post-MI; mean ± SEM
Description: Isolation of adult rat ventricular cardiomyocytes—Ca^2+-tolerant adult cardiomyocytes were isolated from LVs 8 weeks after gene delivery (18 weeks post-MI) by a standard enzymatic digestion procedure and cultivated as described^13,15. […] Length of isolated cardiomyocytes was determined on enlarged digital photos using Olympus Fluoview 4.3 software.

[5] = test system: rat MI model (chronic HF); assay: Heart weight to body weight ratio in post-MI HF rats; assay type: in vivo; conditions: 18 weeks post-MI; mean ± SEM
Description: Myocardial gene transfer to 10 week post-MI rats was achieved as previously described^13,15 with some modifications. Briefly, under general anesthesia (2% isoflurane, v/v) a midline cervical incision was made and the animal was cooled to 29° C. using ice packs. A P-50 catheter (Becton Dickinson, Sparks, Md.) was advanced into the aortic root via the right carotid artery and the ascending aorta was looped using 2-0 silk. 1.2 mg adenosine was injected into the right ventricle using a 30½ G needle. Next, the ascending aorta was clamped and 2.5×10^11 particles of the AAV construct and 8 μg of substance P (Sigma) were rapidly injected into the aortic root allowing for coronary perfusion. […]

[6] = test system: rat MI model (chronic HF); assay: Catheter-based in vivo hemodynamic measurements in post-MI HF rats; conditions: mean ± SEM
Description: as §1
Myocardial gene transfer to 10 week post-MI rats was achieved as previously described^13,15 with some modifications. Briefly, under general anesthesia (2% isoflurane, v/v) a midline cervical incision was made and the animal was cooled to 29° C. using ice packs. A P-50 catheter (Becton Dickinson, Sparks, Md.) was advanced into the aortic root via the right carotid artery and the ascending aorta was looped using 2-0 silk. 1.2 mg adenosine was injected into the right ventricle using a 30½ G needle. Next, the ascending aorta was clamped and 2.5×10^11 particles of the AAV construct and 8 μg of substance P (Sigma) were rapidly injected into the aortic root allowing for coronary perfusion. After 2 min the aortic clamp was released, a bolus of dobutamine (30 μg; intra-arterial) was administered and the animal was re-warmed using a heating pad. The incision was closed and animals were transferred back to their cages receiving appropriate analgesia. […]
Catheter-based in vivo hemodynamic measurements—Cardiac function was measured 8 weeks following gene therapy (18 weeks after MI) in anesthetized rats (2% isoflurane; v/v) using 2 F pressure catheter (SPR-320; Millar instruments, Houston, Tex.). The pressure transducer was placed into the LV cavity through the right carotid artery and the right external jugular vein was cannulated with a P-10 catheter (Becton Dickinson, Sparks, Md.) that was used for isoproterenol administration (333 ng/kg BW) as previously described^13,15.

[7] = test system: endothelial surface of thoracic aorta; assay: NO release from mouse aorta; conditions: ACh 10^−5 M
Description: NO release from mouse aorta—NO release from the endothelial surface of aorta was measured in vitro using an Apollo 4000 “Free Radical Analyzer” (WPI, Sarasota, Fla.) as previously described with some modifications.^52 Briefly, thoracic aorta of WT (n=4) and SKO (n=4) mice were carefully isolated and pinned down in KH solution after connective tissue was thoroughly removed. NO was measured under baseline conditions as well as after ACh stimulation (10^−5 M). Two measurements were recorded per animal and condition and NO values were normalized to the weight of the vascular tissue.

[8] = test system: mouse thoracic aorta; assay: In vitro physiology: relaxation/contraction response of thoracic aorta rings
From the text: In Vitro physiology —The relaxation/contraction response of thoracic aortas of WT or SKO mice was examined using a commercially available mounting apparatus attached to a force transducer (ADInstruments). […] Data were normalized to the PE-induced EC50 contraction which were similar between all aorta tested.

[9] = test system: S100A1 mRNA expression in RCEC; assay: Regulation of S100A1 expression in endothelial cells; assay type: cell-based, rat; conditions: 10^−7 M, 60 hours, versus PBS
Description: Regulation of S100A1 expression in HCAEC—After growing HCAEC or RCEC to 90% confluency full medium was replaced by basal EBM-2 medium with 0.5% serum and cells were stimulated with endothelin-1 (ET-1), angiotensin II (AngII) (both 10^−7 M) or PBS for 60 h. Cells were harvested for either mRNA or protein isolation and S100A1 expression was standardized against 18S rRNA or GAPDH.
RNA Isolation and Real-time RT-PCR—Total RNA was isolated from either HCAEC or […] using Trizol® (Life Technologies). cDNA was synthesized by reverse transcription of the RNA with Superscript II® (Life Technologies) as recommended. Real-time PCR was performed in duplicates with a 1:100 dilution of the cDNA on a MyIQ real time PCR detection system (BioRad) with the SYBR® Green PCR master mix (Applied Biosystems). The oligonucleotide primers to examine expression of genes were as follows: S100A1, forward primer 5′-[…]-3′ (SEQ. ID. No. 19), reverse primer 5′-[…]-3′ (SEQ. ID. No. 20). For normalization, 18S rRNA was used, forward primer 5′-[…]-3′ (SEQ. ID. No. 27), reverse primer 5′-GGACATCTAAGGGCATCAC-3′ (SEQ. ID. No. 28). PCR conditions were 95° C., 3 min, and 40 cycles of 95° C., 10 sec; 63.5° C., 45 sec. Specificity of PCR products were confirmed by gel electrophoresis.

[10] = test system: HCAEC; assay: S100A1 overexpression and NO production in HCAEC; assay type: cell-based, human; conditions: HCAEC pre-incubated with 10^−4 M 20 minutes prior to ACh
Description: S100A1 overexpression and NO production in HCAEC—S100A1 overexpression in HCAEC was achieved by electrical transfection of the plasmid pAdTrack-S100A1 (10 μg), which encodes for GFP and S100A1 both driven by individual cytomegalovirus (CMV) promoters. PBS and the plasmid pAdTrack (10 μg) were used as controls. 500,000 HCAEC were used for each transfection using Nucleofactor® (AMAXA biosystems) according to the manufacturers instructions and plated on 6 well dishes. 18 hours after transfection cells were stimulated using 10^−5M ACh or PBS for 1 hour. […] NO in the supernatant was measured indirectly using the Nitrate/Nitrite fluorometric assay kit (Cayman, Chemical) according to company recommendations. Transfection was controlled by GFP expression as described previously and cells were harvested for mRNA isolation. Experiments were run in triplicate and 3 individual experiments were performed.

[11] = Isoproterenol (333 ng/kg BW), 8 weeks after gene therapy in HF
[12] = basal, 8 weeks after gene therapy in HF

COCCc1ccc(OCC(O)CNC(C)C)cc1 (centres unmarked) [metoprolol]
Collagen I mRNA levels [1]: significantly reduced
TGFβ1 mRNA levels [1]: significantly reduced
ventricular ANF mRNA expression [1]: significantly reduced
PLB mRNA levels ([1]; standardized to 18S rRNA): attenuated the down-regulation
SERCA2a mRNA levels ([1]; standardized to 18S rRNA): attenuated the down-regulation
cardiac S100A1 mRNA ([1]; standardized to 18S rRNA): attenuated the down-regulation
contractile properties and [Ca2+]i transients of isolated failing myocytes [2]: did not affect contractile properties
LV chamber dilatation (LV diastolic dimension) ([3]; 18 week post-MI compared to pre-treatment (10 week post-MI) values): significantly attenuated further LV chamber dilatation
change in cardiac function (EF) over the 2 month treatment period ([3]; HF rats, metoprolol only (with GFP)): no improvement
Cell length (diastolic) [4]: 118.9 ± 2.3 μm
HW/BW ratio [5]: 2.77 ± 0.05 g/kg
HR [6, 11]: 308 ± 6^& min^−1
LV +dP/dt [6, 11]: 9403 ± 491 mmHg/s
LV −dP/dt [6, 11]: 5571 ± 333 mmHg/s
LVEDP [6, 11]: 2.8 ± 0.4 mmHg
LVESP [6, 11]: 105 ± 3.7 mmHg
HR ([6]; basal, 8 weeks after gene therapy in HF (18 weeks post-MI)): 264 ± 8^& min^−1
LV +dP/dt [6, 12]: 4948 ± 225 mmHg/s
LV −dP/dt [6, 12]: 4418 ± 223 mmHg/s
LVEDP [6, 12]: 4.6 ± 0.5 mmHg
LVESP [6, 12]: 109 ± 3.1 mmHg

CC(=O)OCC[N+](C)(C)C [ACh, acetylcholine]
ACh stimulated aortic endothelial NO release ([7]; SKO mice (n=4), second value): 134.5±25.3 nM NO/mg tissue
ACh stimulated aortic endothelial NO release ([7]; WT mice (n=4)): 368.2±68.1 nM NO/mg tissue
maximal response to ACh ([8]; SKO aortas (n=6)): 55±6.49 % of PE-precontraction
maximal response to ACh ([8]; WT control aortas (n=6)): 14±2.41 % of PE-precontraction

endothelin-1 (CSCSSLMDKECVYFCHLDIIW; ends and bridges not checked; cysteine pairing not given here; UniProt P05305 53-73, looked up) [ET-1]
S100A1 mRNA levels [9]: significantly reduced

CNC[C@H](O)c1cccc(O)c1 [PE, phenylephrine]
EC50 ([8]; Mus musculus, read-out: EC50 of the PE response (contraction)): 0.3 µM

angiotensin II (DRVYIHPF; Angiotensin-2; UniProt P01019 25-32, looked up) [Ang II]
S100A1 mRNA levels [9]: significantly reduced

NCCOB(c1ccccc1)c1ccccc1 [2-APB, 2-aminoethoxydiphenylborate]
ACh-stimulated NO generation after IP3R blockage [10]: abolished NO generation
